Columns and labels:
[1] = Recovery of GT and bmGT from human whole blood (influence of blood cells); format: in vitro ADME; conditions: whole blood, human blood, blood centrifuged before extraction to eliminate cellular fraction; for recovery at 30 min, 5 µg/mL: 5 μg added to 1 ml; for recovery at 30 min, 20 µg/mL: 20 μg added to 1 ml
Experimental: (§1) […] Later, the blood was centrifuged at 2000 revolutions per minute (rpm) during 15 minutes, the serum was recovered and GT and bmGT were extracted and analysed as described above.
(§2) The samples were separated using a horizontal developing chamber (Camag) by facing the plates downwards. n-heptane (C7), MeOH, tetrahydrofuran (THF) and acetonitrile (ACN) (HPLC grade, Scharlau, Barcelona, Spain) were used as solvents. The separation and quantification of GT and bmGT was performed with a mixture of THF:C7:ACN (40:58:2) (v:v:v) during 3 min.
(§3) Detection and quantification by UV spectroscopy, a TLC3 scanner was used (Camag) in UV mode whereby a UV scanning densitometry was carried out to determine GT and bmGT (wavelength (λ)=280 and 367 nm). A linear scan with a beam of 4 mm×0.2 mm was used in both cases. The area under the peaks was quantified and saved using Camag's software.
(§4) In parallel, the influence of the presence of blood cells on the recovery of GT and bmGT was analysed. Unlike the serum and plasma, less than 10% of GT was recovered from the whole blood, even when large quantities of GT (20 ug) were added (Table 1). […] The precision of this determination was as high as in the serum or plasma with RSD values of between 9-16%. Aliquots of blood and plasma from the same unit of blood were used simultaneously to perform these determinations, therefore, the only, but crucial, difference between both fluids is the presence of red and white cells in the blood.

blood cells = assay: as above; format: in vitro ADME; conditions: for lost in the blood cells: added to total blood, plasma levels analysed after 10 minutes
Experimental: as §1, §2, §3, §4

[2] = disulfide bond blocked by methylation; cited from earlier work

Row | Structure (SMILES) | recovery at 30 min, 5 µg/mL [1] | recovery at 30 min, 20 µg/mL [1] | lost in the blood cells (blood cells) | recovered from the whole blood (blood cells; whole blood, even when large quantities (20 ug) were added) | biological activity [2]
1 | CN1C(=O)[C@]23CC4=CC=C[C@H](O)[C@H]4N2C(=O)[C@@]1(CO)SS3 [GT, Gliotoxin] | 8.44% | 6.56% | 90% | less than 10% | 
2 | CS[C@]1(CO)C(=O)N2C3C(=CC=C[C@@H]3O)C[C@@]2(SC)C(=O)N1C (some centres unmarked) [bmGT] | 73.2% | 87.2% | 10-15% |  | biologically inactive
